For test [1], the target named is hGal3. Particulars: cited from earlier work.
Test [2] has as its target T1, hGal8^NTD (Homo sapiens, UniProt O00214).
T1 sequence (O00214 1-155 limits assumed): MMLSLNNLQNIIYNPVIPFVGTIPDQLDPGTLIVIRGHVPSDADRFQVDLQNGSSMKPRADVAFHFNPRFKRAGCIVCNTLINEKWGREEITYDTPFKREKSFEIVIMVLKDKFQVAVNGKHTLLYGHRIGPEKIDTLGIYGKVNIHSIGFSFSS
Nature of the test: Isothermal titration calorimetry (ITC).
Procedure: (§5) The experiments were carried out at 298 K and in PBS. […] The thermograms were extracted, processed and subjected to nonlinear regression using the built-in software based on Origin (OriginLab, Northampton, MA, USA) to determine the respective binding constants.

Test [3] addresses T1, hGal8^NTD. Nature of the test: Intrinsic tryptophan fluorescence titration (SVD analysis). The test is classed as binding. Also on record: hexahistidine tag (N); made in house; host or cells: Escherichia coli BL21 (DE3). Particulars: 298 K, PBS, 10 μM protein. From the text: (§1) The samples were subjected to intrinsic fluorescence measurements using a 3 mm quartz cell (Hellma) and a fluorimeter (Jasco FP-8500, Hachioji, Tokyo, Japan). […] The resulting titration data were processed by SVD analysis, as described previously.

The target in test [4] is T2, hGal7 (Homo sapiens, UniProt P47929).
T2 construct: The constructs encoding the open reading frames of hGal1, hGal7 and hGal8 with a hexahistidine tag at the N-termini; hexahistidine (N); made in house; host or cells: Escherichia coli BL21 (DE3)
T2 sequence (P47929 whole entry): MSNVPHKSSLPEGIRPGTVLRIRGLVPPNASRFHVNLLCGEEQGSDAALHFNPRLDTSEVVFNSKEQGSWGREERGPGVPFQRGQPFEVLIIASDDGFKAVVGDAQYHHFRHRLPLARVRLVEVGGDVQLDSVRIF
Nature of the test: Lactose binding affinity, summary over NMR, intrinsic fluorescence, BLI and ITC. The method, then:
as §1
(§2) BLI experiments were carried out using an Octet Red96 system (FortéBio, Menlo Park, CA, USA), as described previously.
(§3) HSQC spectra were also analysed by the TITAN program using a two-state binding model. […] Eight peaks with significant CSPs were chosen to be fitted for each titration experiment. Error analysis was performed by the bootstrap resampling module in the program with 100 resampled spectra.

Test [5] concerns the target T3, hGal7 (human galectin-7) (Homo sapiens, UniProt P47929). Briefly: Intrinsic tryptophan fluorescence titration (SVD analysis). The test is classed as binding. The conditions noted are these: Lactose Kd, 298 K, PBS, 10 μM protein. Also on record: The constructs encoding the open reading frames of hGal1, hGal7 and hGal8 with a hexahistidine tag at the N-termini; hexahistidine tag (N); made in house; host or cells: Escherichia coli BL21 (DE3).
From the text: as §1

Test [6] addresses T4, hGal8^NTD (N-terminal domain of human galectin-8) (Homo sapiens, UniProt O00214).
T4 construct: hexahistidine tag (N); made in house; host or cells: Escherichia coli BL21 (DE3)
T4 sequence (O00214 1-155 limits assumed): T1 sequence (O00214 1-155 limits assumed)
Briefly: NMR titration, global fit of chemical shift perturbations (CSP). Format: binding. The conditions noted are these: 298 K, global fit of CSPs > 2σ.

For test [7], the target named is GST-fused hGal8^CTD. Also on record: method as in PMID 12851289. The conditions noted are these: read-out: lactose Kd (SPR); cited from earlier work.
In test [8] the target is T5, hGal8^CTD (Homo sapiens, UniProt O00214).
T5 sequence (O00214 187-317 limits assumed): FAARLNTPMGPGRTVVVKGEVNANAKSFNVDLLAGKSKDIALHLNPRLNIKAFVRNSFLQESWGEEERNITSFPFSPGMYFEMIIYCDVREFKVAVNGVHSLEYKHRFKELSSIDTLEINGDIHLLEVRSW
Nature of the test: Isothermal titration calorimetry (ITC).
Procedure: as §5

Test [9] has as its target T5, hGal8^CTD. Briefly: Intrinsic tryptophan fluorescence titration (SVD analysis). Also on record: hGal8 N-terminal domain (hGal8^NTD) and C-terminal domain (hGal8^CTD); made in house; host or cells: Escherichia coli BL21 (DE3). Particulars: 298 K, PBS, 10 μM protein. The test is classed as binding.
From the text: as §1

For test [10], the target named is T6, hGal8^full(CTD) (CTD of full-length galectin-8) (Homo sapiens, UniProt O00214).
T6 sequence (O00214 1-317): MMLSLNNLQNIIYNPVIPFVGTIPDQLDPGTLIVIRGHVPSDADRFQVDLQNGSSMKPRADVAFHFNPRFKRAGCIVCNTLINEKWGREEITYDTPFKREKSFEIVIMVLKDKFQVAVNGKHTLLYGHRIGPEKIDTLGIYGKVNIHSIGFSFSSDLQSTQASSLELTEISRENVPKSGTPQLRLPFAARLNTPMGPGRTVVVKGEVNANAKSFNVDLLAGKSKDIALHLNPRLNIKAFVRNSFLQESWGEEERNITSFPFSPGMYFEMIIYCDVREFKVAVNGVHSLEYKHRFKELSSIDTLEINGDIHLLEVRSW
Nature of the test: NMR titration, global fit of chemical shift perturbations (CSP). Particulars: Lactose Kd, CTD of full-length hGal8 (tandem-repeat, 17-residue linker), 298 K.

Test [11] has as its target T3, hGal7 (human galectin-7). Nature of the test: Isothermal titration calorimetry (ITC).
Procedure: as §5
Test [12] addresses T1, hGal8^NTD. Briefly: Bio-layer interferometry (BLI), steady-state fit. Further details: hexahistidine tag (N); made in house; host or cells: Escherichia coli BL21 (DE3). Format: binding. Particulars: biotinylated galectin on SSA biosensor. On the procedure: as §2
(In general: BLI is a label-free optical method that tracks binding on a fibre tip over time.)

Test [13] concerns the target T5, hGal8^CTD. Nature of the test: Lactose binding affinity, summary over NMR, intrinsic fluorescence, BLI and ITC. The conditions noted are these: summary over the biophysical tools. Also on record: hGal8 N-terminal domain (hGal8^NTD) and C-terminal domain (hGal8^CTD); made in house; host or cells: Escherichia coli BL21 (DE3). The method, then: as §1, §2, §3
Test [14] has as its target T3, hGal7 (human galectin-7). Nature of the test: 2D NMR lineshape analysis (TITAN), two-state binding model. Also on record: The constructs encoding the open reading frames of hGal1, hGal7 and hGal8 with a hexahistidine tag at the N-termini; hexahistidine tag (N); made in house; host or cells: Escherichia coli BL21 (DE3). The conditions noted are these: 298 K. On the procedure:
as §3

Test [15] deals with hGal1 (human galectin-1) (Homo sapiens, UniProt P09382). Briefly: Isothermal titration calorimetry (ITC). Particulars: 298 K, PBS. On the technique in general: Isothermal titration calorimetry measures the heat released or taken up as one component is titrated into another.
Sequence of hGal1 (human galectin-1) (P09382 whole entry, the tested form may be a part): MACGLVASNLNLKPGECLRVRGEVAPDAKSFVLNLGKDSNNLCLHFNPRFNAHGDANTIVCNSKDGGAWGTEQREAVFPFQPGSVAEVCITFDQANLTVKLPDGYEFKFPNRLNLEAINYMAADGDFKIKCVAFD
Procedure: as §5
Test [16] has as its target T5, hGal8^CTD. Nature of the test: Bio-layer interferometry (BLI), steady-state fit. Further details: hGal8 N-terminal domain (hGal8^NTD) and C-terminal domain (hGal8^CTD); made in house; host or cells: Escherichia coli BL21 (DE3). Format: binding. The conditions noted are these: biotinylated galectin on SSA biosensor. The method, then:
as §2

Test [17] deals with glutathione-S-transferase (GST)-fused hGal8^NTD. Also on record: method as in PMID 12851289. Particulars: read-out: lactose Kd (SPR); cited from earlier work.
In test [18] the target is T3, hGal7 (human galectin-7). Briefly: Bio-layer interferometry (BLI), steady-state fit. Format: binding. Also on record: The constructs encoding the open reading frames of hGal1, hGal7 and hGal8 with a hexahistidine tag at the N-termini; hexahistidine tag (N); made in house; host or cells: Escherichia coli BL21 (DE3). The conditions noted are these: biotinylated galectin on SSA biosensor. On the procedure:
as §2

Test [19] concerns the target T4, hGal8^NTD (N-terminal domain of human galectin-8). Nature of the test: 2D NMR lineshape analysis (TITAN), two-state binding model. The conditions noted are these: Lactose Kd, 298 K. On the procedure: as §3
The target of test [20] is T7, hGal8^CTD (C-terminal domain of human galectin-8) (Homo sapiens, UniProt O00214).
T7 construct: the N-terminal and C-terminal domains of galectin-8 (hGal8^NTD and hGal8^CTD, respectively); made in house; host or cells: Escherichia coli BL21 (DE3)
T7 sequence (O00214 187-317 limits assumed): T5 sequence (O00214 187-317 limits assumed)
Described as above. The conditions noted are these: 298 K. On the procedure:
as §3

The target in test [21] is T8, hGal8^full(NTD) (NTD of full-length galectin-8) (Homo sapiens, UniProt O00214).
T8 sequence (O00214 1-317): T6 sequence (O00214 1-317)
The test is described as above. Particulars: NTD of full-length hGal8 (G127), 298 K. Further details: A full-length hGal8 (hGal8^full) variant encompassing a 17-residue linker was used; hexahistidine tag (N); made in house; host or cells: Escherichia coli BL21 (DE3). The method, then: (§4) The advantage of using NMR titration to determine Kd values is the ability to simultaneously characterise microscopy binding events at different binding sites. […] The same lineshape analysis was performed for hGal8^full titration experiments, which yielded similar Kd values to those derived from CSP data (Figure S2; Table 1).
as §3

Test [22] deals with T6, hGal8^full(CTD) (CTD of full-length galectin-8). Described as above. Also on record: A full-length hGal8 (hGal8^full) variant encompassing a 17-residue linker was used; hexahistidine tag (N); made in house; host or cells: Escherichia coli BL21 (DE3). Particulars: CTD of full-length hGal8 (N215), 298 K. The method, then: as §4, §3
Test [23] addresses T1, hGal8^NTD. Nature of the test: Lactose binding affinity, summary over NMR, intrinsic fluorescence, BLI and ITC. Further details: hexahistidine tag (N); made in house; host or cells: Escherichia coli BL21 (DE3). Particulars: summary over the biophysical tools. The method, then:
as §1, §2, §3

Test [24] deals with T7, hGal8^CTD (C-terminal domain of human galectin-8). Nature of the test: NMR titration, global fit of chemical shift perturbations (CSP). Format: binding. The conditions noted are these: 298 K, global fit of CSPs > 2σ.
In test [25] the target is T3, hGal7 (human galectin-7). Described as above. Format: binding. Also on record: The constructs encoding the open reading frames of hGal1, hGal7 and hGal8 with a hexahistidine tag at the N-termini; hexahistidine tag (N); made in house; host or cells: Escherichia coli BL21 (DE3). Particulars: 298 K, global fit of CSPs > 2σ.
In test [26] the target is GST-fused tandem-repeat construct (hGal8). Also on record: method as in PMID 12851289. Particulars: read-out: apparent lactose Kd (SPR); cited from earlier work.
Test [27] has as its target T8, hGal8^full(NTD) (NTD of full-length galectin-8). Nature of the test: NMR titration, global fit of chemical shift perturbations (CSP). The conditions noted are these: Lactose Kd, NTD of full-length hGal8 (tandem-repeat, 17-residue linker), 298 K.

Where “and” joins values, the source holds several entries; their conditions need not be identical. Identical values can stand only once.

T3 sequence (P47929 whole entry): as the sequence (P47929 whole entry) above

On to `OC[C@H]1O[C@@H](S[C@@H]2O[C@H](CO)[C@H](O)[C@H](n3cc(-c4cccc(F)c4)nn3)[C@H]2O)[C@H](O)[C@@H](n2cc(-c3cccc(F)c3)nn2)[C@H]1O` [TD139], for which the Kd result in test [1] is given as “low nanomolar”.
On to `OC[C@H]1O[C@@H](O[C@H]2[C@H](O)[C@@H](O)C(O)O[C@@H]2CO)[C@H](O)[C@@H](O)[C@H]1O` (mixture of isomers) [Lactose, lactose], for which the Kd in test [2] is 93 ± 1 µM; in [3], 88 ± 2 µM; in [4], roughly 350 µM; in test [5], 340 µM and 331 µM; in test [6], 84 ± 9 µM; in test [7], 440 µM. Moreover, the Kd in test [8] was 893 ± 25 µM; in test [9] it was 772 ± 56 µM; in [10], ~1500 µM and 1480 µM; in test [11], 323 µM; in test [12] it was 89 ± 26 µM; in test [13], 664 to 950 µM and 800 µM. Besides, the Kd in [14] was 352 ± 9 µM; in [16], 873 ± 526 µM; in test [17], 80 µM; in test [18], 347 ± 180 µM; in test [19], 86.3 µM and 86 µM; in test [20] it was 950 ± 10 µM. Further, the Kd in [21] was 167 ± 7 µM; in test [22] it was 1186 ± 11 µM; in [23], 84 to 93 µM and 80 µM; in test [24], 664 ± 59 µM; in test [25], 397 ± 14 µM; in test [26] it was 140 µM. Moreover, the Kd in [27] is ~130 µM and 128 µM. The “K (binding constant, ITC OneSites model)” value is recorded as 1.08E4 ± 121 M-1 in test [2] (hGal8^NTD, 298 K, PBS) and 1.12E3 ± 31.0 M-1 in test [8] (hGal8^CTD, 298 K, PBS). Besides, the “N (ITC OneSites model)” value in [2] (hGal8^NTD, 298 K, PBS) stood at 0.818 ± 0.0154 sites; in test [8] (hGal8^CTD, 298 K, PBS), 1.68 ± 0.212 sites; in [11] (hGal7, 298 K, PBS), 0.0702 ± 0.00475 sites; in test [15] it was 1.51 ± 0.113 sites. Further, the “ΔH (ITC OneSites model)” value in test [2] (hGal8^NTD, 298 K, PBS) was -1.466E4 ± 302.2 cal/mol; in [8] (hGal8^CTD, 298 K, PBS), -3.045 ± 0.4012 kcal/mol; in test [11] (hGal7, 298 K, PBS), -1.883E4 ± 1326 cal/mol; in test [15] it was -5.772 ± 0.4897 kcal/mol. The “ΔS (ITC OneSites model)” value in test [2] (hGal8^NTD, 298 K, PBS) is -30.7 cal/mol/deg; in [8] (hGal8^CTD, 298 K, PBS), 3.74 cal/mol/deg; in [11] (hGal7, 298 K, PBS) it was -47.2 cal/mol/deg; in test [15], -2.53 cal/mol/deg.

Values taken from PMC6152064 (Molecules : A Journal of Synthetic Chemistry and Natural …, 2017).
